From patent US20240208972A1, “LRRK2 INHIBITORS AND USES THEREOF” (NEURON23, INC., priority 2022, published 2024)

Experiments:
Caco-2 cells = experiment: Caco-2 bidirectional permeability; type: in vitro ADME; conditions: for Caco-2 A2B (10^−6 cm/s): A to B; for Caco-2 A2B (10^−6 cm/s) / Caco-2 B2A (10^−6 cm/s): HBSS pH 7.4, 2 hours; for Caco-2 B2A (10^−6 cm/s): B to A; for Caco-2 ER: Efflux Ratio=Papp (BA)/Papp (AB)
Outline: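 Caco-2 monolayers grown 21–28 days on PET inserts were run in duplicate in HBSS with 10 mM HEPES, pH 7.4. Compound was tested in both directions at […] for 2 h at 37 °C and quantified by LC-MS/MS. Papp, % recovery and efflux ratio (B-A/A-B) were calculated, with lucifer yellow checking monolayer integrity.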

[1] = Human hepatocyte stability, in vitro h-Hept CLpredict; type: in vitro ADME; conditions: cryopreserved hepatocytes, predicted hepatic clearance, cells without asterisk, read-out: hHep Cl
Outline: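 Cryopreserved human hepatocytes at 0.5×10^6 viable cells/mL in William's E medium, compound added from 100 μM solution, sampled 0–120 min in duplicate with LC/MS/MS quantitation. t1/2 from parent disappearance converted to CLint, then scaled to predicted hepatic clearance (well-stirred model, fub assumed 1) and extraction ratio.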

| Structure (SMILES) | Caco-2 A2B (10^−6 cm/s) (Caco-2 cells) | Caco-2 B2A (10^−6 cm/s) (Caco-2 cells) | Caco-2 ER (Caco-2 cells) | CLhep predicted at 1 µM [1] |
| --- | --- | --- | --- | --- |
| [2H]C1([2H])OC([2H])([2H])C([2H])([2H])N(c2ccc3c(c2)-c2[nH]nc(C)c2N=C(c2c(F)cccc2F)N3)C1([2H])[2H] [Example 22, 2,2,3,3,5,5,6,6-octadeuterio-4-[5-(2,6-difluorophenyl)-3-methyl-1,6-dihydropyrazolo[4,3-d][1,3]benzodiazepin-9-yl]morpholine] | H (H (High permeability)”: A2B (B2A)>5) | H (H (High permeability)”: A2B (B2A)>5) | N (N (Non-substrate)”: ER<2.5) | 6.3 to 14.7 mL/min/kg |
| Cc1n[nH]c2c1N=C(c1c(F)cccc1F)Nc1c-2cc(N2CCN(CCF)C[C@H]2C)nc1C (single isomer, unassigned) [Example 18] | H (H (High permeability)”: A2B (B2A)>5) | H (H (High permeability)”: A2B (B2A)>5) | N (N (Non-substrate)”: ER<2.5) | 6.3 to 14.7 mL/min/kg |
| Cc1n[nH]c2c1N=C(c1c(F)cccc1F)Nc1c-2cc(N2CCO[C@@H](C)C2)nc1C [Example 40, (S)-4-(5-(2,6-difluorophenyl)-3,7-dimethyl-1,6-dihydropyrazolo[4,3-d]pyrido[4,3-f][1,3]diazepin-9-yl)-2-methylmorpholine] | H (H (High permeability)”: A2B (B2A)>5) | H (H (High permeability)”: A2B (B2A)>5) | N (N (Non-substrate)”: ER<2.5) | < 6.3 mL/min/kg |
| Cc1n[nH]c2c1N=C(c1c(F)cccc1F)Nc1c-2cc(N2CCN(CCF)CC2)nc1C [Example 9, 8-(2,6-difluorophenyl)-13-[4-(2-fluoroethyl)piperazin-1-yl]-5,11-dimethyl-3,4,7,9,12-pentazatricyclo[8.4.0.02,6]tetradeca-1(10),2(6),4,7,11,13-hexaene] | H (H (High permeability)”: A2B (B2A)>5) | H (H (High permeability)”: A2B (B2A)>5) | N (N (Non-substrate)”: ER<2.5) | < 6.3 mL/min/kg |
| Cc1n[nH]c2c1N=C(c1c(F)cc(F)cc1F)Nc1ccc(N3CCOCC3)cc1-2 [Example 27, 4-[3-methyl-5-(2,4,6-trifluorophenyl)-1,6-dihydropyrazolo[4,3-d][1,3]benzodiazepin-9-yl]morpholine] | H (H (High permeability)”: A2B (B2A)>5) | H (H (High permeability)”: A2B (B2A)>5) | N (N (Non-substrate)”: ER<2.5) | 6.3 to 14.7 mL/min/kg |
| Cc1n[nH]c2c1N=C(c1c(F)cccc1F)Nc1c-2cc(N2CC3(CCOCC3)C2)nc1C [Example 47, 2-[8-(2,6-difluorophenyl)-5,11-dimethyl-3,4,7,9,12-pentazatricyclo[8.4.0.02,6]tetradeca-1(10),2(6),4,7,11,13-hexaen-13-yl]-7-oxa-2-azaspiro[3.5]nonane] | M (M (Moderate permeability)”: 1≤A2B (B2A)≤5) | H (H (High permeability)”: A2B (B2A)>5) | L (L (Likely)”: ER>2.5) | 6.3 to 14.7 mL/min/kg |
| [2H]C([2H])([2H])c1n[nH]c2c1N=C(c1c(F)cccc1F)Nc1ccc(N3CCOCC3)cc1-2 [Example 33, 4-[5-(2,6-difluorophenyl)-3-(trideuteriomethyl)-1,6-dihydropyrazolo[4,3-d][1,3]benzodiazepin-9-yl]morpholine] | H (H (High permeability)”: A2B (B2A)>5) | H (H (High permeability)”: A2B (B2A)>5) | N (N (Non-substrate)”: ER<2.5) | < 6.3 mL/min/kg |
| Cc1n[nH]c2c1N=C(c1c(F)cccc1F)Nc1c-2cc(N2CCN(CC(C)(C)F)CC2)nc1C [Example 5, 5-(2,6-difluorophenyl)-9-(4-(2-fluoro-2-methylpropyl)piperazin-1-yl)-3,7-dimethyl-1,6-dihydropyrazolo[4,3-d]pyrido[4,3-f][1,3]diazepine] | H (H (High permeability)”: A2B (B2A)>5) | H (H (High permeability)”: A2B (B2A)>5) | N (N (Non-substrate)”: ER<2.5) | 6.3 to 14.7 mL/min/kg |
| Cc1n[nH]c2c1N=C(c1c(F)cccc1F)Nc1c-2cc(N2CCN(CC(F)F)CC2)nc1C [Example 19, 13-[4-(2,2-difluoroethyl)piperazin-1-yl]-8-(2,6-difluorophenyl)-5,11-dimethyl-3,4,7,9,12-pentazatricyclo[8.4.0.02,6]tetradeca-1(10),2(6),4,7,11,13-hexaene] | H (H (High permeability)”: A2B (B2A)>5) | H (H (High permeability)”: A2B (B2A)>5) | N (N (Non-substrate)”: ER<2.5) | 6.3 to 14.7 mL/min/kg |
| Cc1n[nH]c2c1N=C(c1c(F)cccc1F)Nc1cc(F)c(N3CCOCC3)cc1-2 [Example 28, 4-[5-(2,6-difluorophenyl)-8-fluoro-3-methyl-1,6-dihydropyrazolo[4,3-d][1,3]benzodiazepine-9-yl]morpholine] | H (H (High permeability)”: A2B (B2A)>5) | H (H (High permeability)”: A2B (B2A)>5) | N (N (Non-substrate)”: ER<2.5) | < 6.3 mL/min/kg |
| [2H]C([2H])([2H])c1n[nH]c2c1N=C(c1c(F)cccc1F)Nc1ccc(N3CCO[C@@H](C)C3)cc1-2 [Example 34, (2S)-4-[5-(2,6-difluorophenyl)-3-(trideuteriomethyl)-1,6-dihydropyrazolo[4,3-d][1,3]benzodiazepin-9-yl]-2-methyl-morpholine] | H (H (High permeability)”: A2B (B2A)>5) | H (H (High permeability)”: A2B (B2A)>5) | N (N (Non-substrate)”: ER<2.5) | < 6.3 mL/min/kg |
| Cc1n[nH]c2c1N=C(c1c(F)cccc1F)Nc1c-2cc(N2CCOCC2)nc1C [Example 8, 4-[8-(2,6-difluorophenyl)-5,11-dimethyl-3,4,7,9,12-pentazatricyclo[8.4.0.02,6]tetradeca-1(10),2(6),4,7,11,13-hexaen-13-yl]morpholine] | H (H (High permeability)”: A2B (B2A)>5) | H (H (High permeability)”: A2B (B2A)>5) | N (N (Non-substrate)”: ER<2.5) | 6.3 to 14.7 mL/min/kg |
| Cc1n[nH]c2c1N=C(c1c(F)cccc1F)Nc1ccc(N3CCO[C@H](C)C3)cc1-2 [Example 7, (R)-4-(5-(2,6-difluorophenyl)-3-methyl-1,6-dihydrobenzo[d]pyrazolo[3,4-f][1,3]diazepin-9-yl)-2-methylmorpholine] | H (H (High permeability)”: A2B (B2A)>5) | H (H (High permeability)”: A2B (B2A)>5) | N (N (Non-substrate)”: ER<2.5) | 6.3 to 14.7 mL/min/kg |
| Cc1n[nH]c2c1N=C(c1c(F)cccc1F)Nc1ccc(N3CCN(CCF)CC3)cc1-2 [Example 25, 5-(2,6-difluorophenyl)-9-[4-(2-fluoroethyl)piperazin-1-yl]-3-methyl-1,6-dihydropyrazolo[4,3-d][1,3]benzodiazepine] | H (H (High permeability)”: A2B (B2A)>5) | H (H (High permeability)”: A2B (B2A)>5) | L (L (Likely)”: ER>2.5) | < 6.3 mL/min/kg |
